# Laboratory results reported in US6710088B2 (NPS Pharmaceuticals, Inc., priority 1996, dated 2004).
# Where a name gives a salt, the structure may show the parent alone.
# Target: T1, calcium receptor (Homo sapiens, UniProt P41180)
# T1 construct: expressed in transfected cells; host or cells: HEK 293 4.0-7
# T1 sequence (P41180 20-1078): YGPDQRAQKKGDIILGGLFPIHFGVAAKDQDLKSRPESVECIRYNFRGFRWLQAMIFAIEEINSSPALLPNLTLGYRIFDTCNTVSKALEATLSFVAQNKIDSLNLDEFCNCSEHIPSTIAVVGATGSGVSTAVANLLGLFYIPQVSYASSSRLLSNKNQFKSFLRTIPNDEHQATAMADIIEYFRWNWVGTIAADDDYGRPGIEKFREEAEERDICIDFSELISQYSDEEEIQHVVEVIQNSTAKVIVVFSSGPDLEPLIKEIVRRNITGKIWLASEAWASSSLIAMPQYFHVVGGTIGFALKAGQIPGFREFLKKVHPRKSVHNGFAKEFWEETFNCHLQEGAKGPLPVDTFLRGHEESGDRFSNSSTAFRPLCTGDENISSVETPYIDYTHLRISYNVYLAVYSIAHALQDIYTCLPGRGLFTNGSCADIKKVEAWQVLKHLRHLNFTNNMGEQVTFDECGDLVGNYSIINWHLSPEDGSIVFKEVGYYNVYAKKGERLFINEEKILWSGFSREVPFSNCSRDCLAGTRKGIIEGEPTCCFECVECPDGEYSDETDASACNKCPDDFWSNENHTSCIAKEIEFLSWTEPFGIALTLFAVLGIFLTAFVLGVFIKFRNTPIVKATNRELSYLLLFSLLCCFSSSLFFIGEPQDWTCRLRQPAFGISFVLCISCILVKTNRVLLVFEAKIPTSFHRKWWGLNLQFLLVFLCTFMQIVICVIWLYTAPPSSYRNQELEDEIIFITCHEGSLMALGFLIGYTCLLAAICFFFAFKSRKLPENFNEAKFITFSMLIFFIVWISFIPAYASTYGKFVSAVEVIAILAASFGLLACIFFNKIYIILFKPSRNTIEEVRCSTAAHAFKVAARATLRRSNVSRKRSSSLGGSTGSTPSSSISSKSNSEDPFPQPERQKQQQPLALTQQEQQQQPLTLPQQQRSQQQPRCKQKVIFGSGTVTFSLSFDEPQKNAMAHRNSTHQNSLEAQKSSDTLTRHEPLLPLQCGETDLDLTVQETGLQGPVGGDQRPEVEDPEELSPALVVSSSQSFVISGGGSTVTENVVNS
# Experiment: Calcium receptor activity in recombinant HEK 293 4.0-7 cells (fluorescence of dye-loaded cells)
# Type: cell-based
# Settings: recombinant HEK 293 4.0-7 cells containing a calcium receptor; 1 mM CaCl2, 1 mM MgCl2; fluorescence 340/510 nm
# Procedure: Recombinant HEK 293 4.0-7 cells containing a calcium receptor were constructed as described by Rogers et al., J. Bone Miner. Res. 10 Suppl. 1:S483, 1995 (hereby incorporated by reference herein). The recombinant cells were loaded with fura-2 by incubating the cells in Dulbecco's modified Eagle's medium buffered with 20 mM HEPES containing about 5 μM […] for one hour at room temperature. Cells were then rinsed with Hank's balanced salt solution buffered with 20 mM HEPES containing 1 mM CaCl2 and 1 mM MgCl2. Compounds to be tested were then added to the cells and fluorescence was measured (excitation and emission wavelengths of 340 and 510 nm, respectively).
row,Compound,EC50
1,"C[C@@H](NCC=Cc1ccccc1)c1cccc2ccccc12 [Compound 26H, (R)-N-(3-phenyl-2-propenyl)-1-(1-naphthyl)ethylamine hydrochloride]",36 nM
2,"C[C@@H](N[C@H](C)c1cccc2ccccc12)c1ccc(I)cc1 [Compound 26D, hydrochloride]",47 nM
3,"CC(=Cc1ccccc1)CN[C@H](C)c1cccc2ccccc12 [Compound 26I, (R)-N-(2-methyl-3-phenyl-2-propenyl)-1-(1-naphthyl)ethylamine hydrochloride]",126 nM
4,"CCOc1ccc([C@@H](C)N[C@H](C)c2cccc3ccccc23)cc1C [Compound 26E, hydrochloride]",77 nM
5,"COc1ccccc1C=CCN[C@H](C)c1cccc2ccccc12 [Compound 26J, hydrochloride]",47 nM
6,"(R,R)-N-(1-Ethyl-4′-methoxy-3′-bromophenyl)-1-(1-naphthyl)ethylamine hydrochloride [Compound 26G]",11 nM
7,"CC[C@@H](N[C@H](C)c1cccc2ccccc12)c1ccc(OC)c(C)c1 [Compound 26F, hydrochloride]",15 nM
